Data reported in PubChem BioAssay (NCI).
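48-hour exposure; five concentrations; linearly interpolated endpoints. TGI: concentration producing complete growth inhibition.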

How the values were obtained:
Assay in all cases: NCI-60 cell line screen, 48 h
786-0 renal = test system: 786-0 renal
A498 renal = test system: A498 renal
A549 NSCLC = test system: A549 NSCLC
ACHN renal = test system: ACHN renal
BT-549 breast = test system: BT-549 breast
CAKI-1 renal = test system: CAKI-1 renal
CCRF-CEM leukemia = test system: CCRF-CEM leukemia
COLO 205 colon = test system: COLO 205 colon
DU-145 prostate = test system: DU-145 prostate
EKVX NSCLC = test system: EKVX NSCLC
HCT-116 colon = test system: HCT-116 colon
HCT-15 colon = test system: HCT-15 colon
HL-60(TB) leukemia = test system: HL-60(TB) leukemia
HOP-62 NSCLC = test system: HOP-62 NSCLC
HOP-92 NSCLC = test system: HOP-92 NSCLC
HS 578T breast = test system: HS 578T breast
HT29 colon = test system: HT29 colon
IGROV1 ovarian = test system: IGROV1 ovarian
K-562 leukemia = test system: K-562 leukemia
KM12 colon = test system: KM12 colon
LOX IMVI melanoma = test system: LOX IMVI melanoma
M14 melanoma = test system: M14 melanoma
MALME-3M melanoma = test system: MALME-3M melanoma
MCF7 breast = test system: MCF7 breast
MDA-MB-231 breast = test system: MDA-MB-231 breast
MDA-MB-435 = test system: MDA-MB-435
MDA-N = test system: MDA-N
MOLT-4 leukemia = test system: MOLT-4 leukemia
NCI-H226 lung = test system: NCI-H226 lung
NCI-H23 lung = test system: NCI-H23 lung
NCI-H460 lung = test system: NCI-H460 lung
NCI-H522 lung = test system: NCI-H522 lung
NCI/ADR-RES ovarian = test system: NCI/ADR-RES ovarian
OVCAR-3 ovarian = test system: OVCAR-3 ovarian
OVCAR-4 ovarian = test system: OVCAR-4 ovarian
OVCAR-5 ovarian = test system: OVCAR-5 ovarian
OVCAR-8 ovarian = test system: OVCAR-8 ovarian
PC-3 prostate = test system: PC-3 prostate
RPMI-8226 leukemia = test system: RPMI-8226 leukemia
RXF 393 renal = test system: RXF 393 renal
SF-268 CNS = test system: SF-268 CNS
SF-295 CNS = test system: SF-295 CNS
SF-539 CNS = test system: SF-539 CNS
SK-MEL-28 melanoma = test system: SK-MEL-28 melanoma
SK-MEL-5 melanoma = test system: SK-MEL-5 melanoma
SK-OV-3 ovarian = test system: SK-OV-3 ovarian
SN12C renal = test system: SN12C renal
SNB-19 CNS = test system: SNB-19 CNS
SNB-75 CNS = test system: SNB-75 CNS
SR leukemia = test system: SR leukemia
SW-620 colon = test system: SW-620 colon
T-47D breast = test system: T-47D breast
TK-10 renal = test system: TK-10 renal
U251 CNS = test system: U251 CNS
UACC-257 melanoma = test system: UACC-257 melanoma
UACC-62 melanoma = test system: UACC-62 melanoma
UO-31 renal = test system: UO-31 renal
SK-MEL-2 melanoma = test system: SK-MEL-2 melanoma

Measured: TGI

COC1CC(C)(NC(C)=O)C2OC(c3ccccc3)OCC2O1 (centres undefined)
> 100 µM: 786-0 renal | A498 renal | A549 NSCLC | ACHN renal | BT-549 breast | CAKI-1 renal | CCRF-CEM leukemia | COLO 205 colon | DU-145 prostate | EKVX NSCLC | HCT-116 colon | HCT-15 colon | HL-60(TB) leukemia | HOP-62 NSCLC | HOP-92 NSCLC | HS 578T breast | HT29 colon | IGROV1 ovarian | K-562 leukemia | KM12 colon | LOX IMVI melanoma | M14 melanoma | MALME-3M melanoma | MCF7 breast | MDA-MB-231 breast | MDA-MB-435 | MDA-N | MOLT-4 leukemia | NCI-H226 lung | NCI-H23 lung | NCI-H460 lung | NCI-H522 lung | NCI/ADR-RES ovarian | OVCAR-3 ovarian | OVCAR-4 ovarian | OVCAR-5 ovarian | OVCAR-8 ovarian | PC-3 prostate | RPMI-8226 leukemia | RXF 393 renal | SF-268 CNS | SF-295 CNS | SF-539 CNS | SK-MEL-28 melanoma | SK-MEL-5 melanoma | SK-OV-3 ovarian | SN12C renal | SNB-19 CNS | SNB-75 CNS | SR leukemia | SW-620 colon | T-47D breast | TK-10 renal | U251 CNS | UACC-257 melanoma | UACC-62 melanoma | UO-31 renal

O=C(O)/C=C/C=C/c1ccc2c(c1)OCO2
> 100 µM: 786-0 renal | A498 renal | A549 NSCLC | ACHN renal | BT-549 breast | CAKI-1 renal | COLO 205 colon | DU-145 prostate | EKVX NSCLC | HCT-116 colon | HCT-15 colon | HL-60(TB) leukemia | HOP-62 NSCLC | HOP-92 NSCLC | HS 578T breast | HT29 colon | IGROV1 ovarian | K-562 leukemia | KM12 colon | LOX IMVI melanoma | M14 melanoma | MALME-3M melanoma | MCF7 breast | MDA-MB-231 breast | MDA-MB-435 | MDA-N | MOLT-4 leukemia | NCI-H226 lung | NCI-H23 lung | NCI-H460 lung | NCI-H522 lung | NCI/ADR-RES ovarian | OVCAR-3 ovarian | OVCAR-4 ovarian | OVCAR-5 ovarian | OVCAR-8 ovarian | PC-3 prostate | RPMI-8226 leukemia | RXF 393 renal | SF-268 CNS | SF-295 CNS | SF-539 CNS | SK-MEL-2 melanoma | SK-MEL-28 melanoma | SK-MEL-5 melanoma | SK-OV-3 ovarian | SN12C renal | SNB-19 CNS | SNB-75 CNS | SR leukemia | SW-620 colon | T-47D breast | TK-10 renal | U251 CNS | UACC-257 melanoma | UACC-62 melanoma | UO-31 renal
